± gives the expanded uncertainty stated by the source.
assay: Boiling temperature at pressure P; settings: 101.3 kPa; Liquid; Ebulliometric method (Recirculating still)

Boiling temperature at pressure P [°C]	Compound
202.29 ± 0.4	CN1CCCC1=O [N-methylpyrrolidone]
197.17 ± 0.4	OCCO [1,2-ethanediol]
199.10 ± 0.4	CNC=O [N-methylformamide]

Compound	Boiling temperature at pressure P [°C]
C=CCO [2-propenol]	96.80 ± 0.4

Reference: the NIST ThermoML archive (doi:10.1016/j.jct.2017.11.009)
